Target: E1CTD-E12 complex (Monkeypox virus Zaire-96-I-16, UniProt Q8V4Y7)
Test: biochemical

C[S+](CC[C@H](N)C(=O)O)C[C@H]1O[C@@H](n2cnc3c(N)ncnc32)[C@H](O)[C@@H]1O (stereo partly shown) [SAM]
Kd: 3.87 µM

— publication PMC11212559 (Emerging Microbes & Infections, 2024)
